Measured values taken from PubChem BioAssay AID192 (DTP/NCI, 2004).
Values joined by “and” are separate entries in the source; they are usually repeats but may differ in a detail not shown here. Equal entries are not always repeated. Toxic doses and inconclusive results are not listed. Rule for the calls: active = survival T/C of 150% or more; inactive = T/C below 125% in these data.

Tested on: BDF1 mice, B16 melanoma ip, median survival T/C
Test: NCI In Vivo Anticancer Drug Screen. Data for tumor model B16 Melanoma (intraperitoneal) in B6D2F1 (BDF1) mice
Conditions: endpoint: median survival time, higher = longer survival
Procedure, shortened: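 The ratio T/C compares compound-treated mice with vehicle-treated controls, using survival or tumor size as the endpoint in a transplantable tumor model.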

[1] = dose: 100.0 mg/kg/injection, schedule: Q01DX009 (ip), vehicle: saline with Tween-80
[2] = dose: 200.0 mg/kg/injection, schedule: Q01DX009 (ip), vehicle: saline with Tween-80
[3] = dose: 400.0 mg/kg/injection, schedule: Q01DX009 (ip), vehicle: saline with Tween-80
[4] = dose: 12.5 mg/kg/injection, schedule: Q04DX003 (ip), vehicle: saline with Tween-80
[5] = dose: 25.0 mg/kg/injection, schedule: Q04DX003 (ip), vehicle: saline with Tween-80
[6] = dose: 50.0 mg/kg/injection, schedule: Q01DX009 (ip), vehicle: saline with Tween-80
[7] = dose: 6.25 mg/kg/injection, schedule: Q01DX009 (ip), vehicle: saline with Tween-80
[8] = dose: 12.5 mg/kg/injection, schedule: Q01DX009 (ip), vehicle: saline with Tween-80
[9] = dose: 25.0 mg/kg/injection, schedule: Q01DX009 (ip), vehicle: saline with Tween-80
[10] = dose: 100.0 mg/kg/injection, schedule: Q01DX009 (ip), vehicle: Klucel (hydroxypropylcellulose) (HPC)
[11] = dose: 100.0 mg/kg/injection, schedule: Q04DX003 (ip), vehicle: Klucel (hydroxypropylcellulose) (HPC)
[12] = dose: 200.0 mg/kg/injection, schedule: Q01DX009 (ip), vehicle: Klucel (hydroxypropylcellulose) (HPC)
[13] = dose: 200.0 mg/kg/injection, schedule: Q01DX009 (ip), vehicle: saline
[14] = dose: 25.0 mg/kg/injection, schedule: Q01DX009 (ip), vehicle: Klucel (hydroxypropylcellulose) (HPC)
[15] = dose: 50.0 mg/kg/injection, schedule: Q01DX009 (ip), vehicle: Klucel (hydroxypropylcellulose) (HPC)
[16] = dose: 12.5 mg/kg/injection, schedule: Q01DX009 (ip), vehicle: Klucel (hydroxypropylcellulose) (HPC)
[17] = dose: 5.0 mg/kg/injection, schedule: Q01DX009 (ip), vehicle: saline
[18] = dose: 10.0 mg/kg/injection, schedule: Q01DX009 (ip), vehicle: saline

Measured: T/C

CCc1ccc(NC(=O)Nc2ccccc2OC)cc1
inactive: dose: 100.0 mg/kg/injection, schedule: Q01DX009 (ip), vehicle: gum acacia 105 % of control | dose: 200.0 mg/kg/injection, schedule: Q01DX009 (ip), vehicle: gum acacia 98 % of control | dose: 400.0 mg/kg/injection, schedule: Q01DX009 (ip), vehicle: gum acacia 101 % of control

NNC(=O)c1cccc(C(=O)NN)c1
inactive: [1] 97 % of control | [2] 100 % of control | [3] 97 % of control

COc1ccc(NC2=CC(C)(C(=O)O)OC2=O)cc1 (stereo unspecified)
inactive: [4] 93 % of control | [5] 102 % of control | dose: 50.0 mg/kg/injection, schedule: Q04DX003 (ip), vehicle: saline with Tween-80 100 % of control

COc1cc2c(c(O)c1OC)-c1c(cc(OC)c(OC)c1OC)CC(C)C(C)C2 (stereo unspecified)
inactive: dose: 11.25 mg/kg/injection, schedule: Q01DX009 (ip), vehicle: saline + Tween-80 + alcohol 101 % of control | dose: 22.5 mg/kg/injection, schedule: Q01DX009 (ip), vehicle: saline + Tween-80 + alcohol 105 % of control | dose: 45.0 mg/kg/injection, schedule: Q01DX009 (ip), vehicle: saline + Tween-80 + alcohol 97 % of control | dose: 90.0 mg/kg/injection, schedule: Q01DX009 (ip), vehicle: saline + Tween-80 + alcohol 106 % of control

O=[N+]([O-])c1ccc2nc3c(nc2c1)-c1cccc2cccc-3c12
inactive: [6] 103 % of control | [1] 100 % of control | [2] 98 % of control

CNC(=O)Oc1coc(CCl)cc1=O
inactive: dose: 12.0 mg/kg/injection, schedule: Q01DX009 (ip), vehicle: Klucel (hydroxypropylcellulose) (HPC) 93 % of control | dose: 18.0 mg/kg/injection, schedule: Q01DX009 (ip), vehicle: Klucel (hydroxypropylcellulose) (HPC) 96 % of control | dose: 27.0 mg/kg/injection, schedule: Q01DX009 (ip), vehicle: Klucel (hydroxypropylcellulose) (HPC) 96 % of control | dose: 40.0 mg/kg/injection, schedule: Q01DX009 (ip), vehicle: Klucel (hydroxypropylcellulose) (HPC) 106 % of control

C[N+](C)(C)CCOC(=O)c1ccccc1
inactive: [1] 91 % of control | [2] 93 % of control | [3] 91 % of control

O=S(=O)(O)O.[W]
inactive: dose: 0.75 mg/kg/injection, schedule: Q01DX009 (ip), vehicle: saline 87 % of control and 100 % of control | dose: 1.5 mg/kg/injection, schedule: Q01DX009 (ip), vehicle: saline 91 % of control and 101 % of control

COc1ccccc1N=NC(C#N)C(N)=O (stereo unspecified)
inactive: [7] 91 % of control | [8] 94 % of control | [9] 87 % of control | [6] 112 % of control

Cc1cc(N(C)C)cc(C)c1N=Nc1cc[n+]([O-])cc1
inactive: dose: 3.13 mg/kg/injection, schedule: Q01DX009 (ip), vehicle: saline with Tween-80 98 % of control | [7] 100 % of control | [8] 105 % of control | [9] 108 % of control | [6] 95 % of control and 113 % of control

CCC(=O)O[C@H]1CC[C@H]2[C@@H]3[C@@H](C)CC4=CC(=O)CC[C@]4(C)[C@H]3CC[C@]12C
inactive: [9] 98 % of control | [6] 91 % of control | [1] 87 % of control and 89 % of control | dose: 100.0 mg/kg/injection, schedule: Q04DX003 (ip), vehicle: saline with Tween-80 100 % of control | dose: 200.0 mg/kg/injection, schedule: Q04DX003 (ip), vehicle: saline with Tween-80 100 % of control | dose: 400.0 mg/kg/injection, schedule: Q04DX003 (ip), vehicle: saline with Tween-80 86 % of control

NC(=O)Cn1cnc2c(=S)nc[nH]c21
inactive: [4] 95 % of control | [5] 100 % of control

O=C(CBr)OCCOc1ccccc1
inactive: dose: 5.0 mg/kg/injection, schedule: Q01DX009 (ip), vehicle: saline sonified 87 % of control | dose: 10.0 mg/kg/injection, schedule: Q01DX009 (ip), vehicle: saline sonified 90 % of control | dose: 20.0 mg/kg/injection, schedule: Q01DX009 (ip), vehicle: saline sonified 102 % of control | dose: 40.0 mg/kg/injection, schedule: Q01DX009 (ip), vehicle: saline sonified 92 % of control

O=C(NC(CO)C(=O)OCc1ccccc1)OCc1ccccc1 (stereo unspecified)
inactive: [1] 111 % of control | [2] 113 % of control | [3] 105 % of control

CCc1ccccc1NC(=O)Nc1ccccc1
inactive: [10] 90 % of control | [11] 100 % of control | [12] 90 % of control | dose: 200.0 mg/kg/injection, schedule: Q04DX003 (ip), vehicle: Klucel (hydroxypropylcellulose) (HPC) 100 % of control | dose: 400.0 mg/kg/injection, schedule: Q04DX003 (ip), vehicle: Klucel (hydroxypropylcellulose) (HPC) 92 % of control

CC(Cc1ccc(O)c(O)c1)C(C)Cc1ccc(O)c(O)c1 (stereo unspecified)
inactive: dose: 750.0 mg/kg/injection, schedule: Q01DX009 (oral), vehicle: saline 100 % of control | dose: 1500.0 mg/kg/injection, schedule: Q01DX009 (oral), vehicle: saline 97 % of control

COc1ccc(NC(=O)Nc2ccc(OC)cc2)cc1
inactive: [13] 120 % of control | dose: 400.0 mg/kg/injection, schedule: Q01DX009 (ip), vehicle: saline 116 % of control

CC1CC(C)(O)CC(C(O)CC2CC(=O)NC(=O)C2)C1=O (stereo unspecified)
inactive: dose: 0.98 mg/kg/injection, schedule: Q04DX003 (ip), vehicle: saline 111 % of control | dose: 1.4 mg/kg/injection, schedule: Q04DX003 (ip), vehicle: saline 100 % of control | dose: 2.0 mg/kg/injection, schedule: Q04DX003 (ip), vehicle: saline 91 % of control | dose: 2.86 mg/kg/injection, schedule: Q04DX003 (ip), vehicle: saline 102 % of control

CCOc1cc(C2=NNc3n[nH]c(=S)n3N2)ccc1O
inactive: [14] 96 % of control | dose: 25.0 mg/kg/injection, schedule: Q04DX003 (ip), vehicle: Klucel (hydroxypropylcellulose) (HPC) 97 % of control | [15] 100 % of control | dose: 50.0 mg/kg/injection, schedule: Q04DX003 (ip), vehicle: Klucel (hydroxypropylcellulose) (HPC) 102 % of control | [11] 122 % of control

CC1(C)NC(=O)C(/C=C/c2ccccc2)O1 (stereo unspecified)
inactive: dose: 6.25 mg/kg/injection, schedule: Q01DX009 (ip), vehicle: Klucel (hydroxypropylcellulose) (HPC) 96 % of control | [16] 109 % of control | [14] 121 % of control | [10] 112 % of control | [12] 86 % of control

CCN(CC)C(=S)SC(=S)N(CC)CC
inactive: [1] 96 % of control | [2] 103 % of control | [3] 93 % of control

c1cc2c(c(NC3=NCCCS3)c1)CCCC2
inactive: [15] 106 % of control | [10] 96 % of control | [12] 96 % of control

COc1cc(-c2ccc(N=Nc3ccc4c(S(=O)(=O)O)cc(S(=O)(=O)O)c(N)c4c3O)c(OC)c2)ccc1N=Nc1ccc2c(S(=O)(=O)O)cc(S(=O)(=O)O)c(N)c2c1O
inactive: [16] 88 % of control | [14] 97 % of control | [15] 102 % of control

Nc1ccccc1SC1CC(=O)N(c2ccc(Br)cc2Cl)C1=O (stereo unspecified)
inactive: [15] 94 % of control

Cc1cccc(C(N)=S)n1
inactive: [15] 110 % of control | [10] 100 % of control

O=[N+]([O-])c1cccc2c(S(=O)(=O)O)cccc12
inactive: dose: 50.0 mg/kg/injection, schedule: Q01DX009 (ip), vehicle: saline 113 % of control | dose: 100.0 mg/kg/injection, schedule: Q01DX009 (ip), vehicle: saline 110 % of control | [13] 91 % of control

O=C1C=CC(=O)N1c1ccc(Cl)cc1
inactive: dose: 1.25 mg/kg/injection, schedule: Q01DX009 (ip), vehicle: Klucel (hydroxypropylcellulose) (HPC) 97 % of control

CCOP(=O)(N1CC1(C)C)N1CC1(C)C (stereo unspecified)
inactive: [17] 109 % of control | [18] 104 % of control | dose: 20.0 mg/kg/injection, schedule: Q01DX009 (ip), vehicle: saline 109 % of control | dose: 30.0 mg/kg/injection, schedule: Q01DX009 (ip), vehicle: saline 118 % of control

COc1cc([C@@H]2c3cc4c(cc3C[C@H]3COC(=O)[C@@H]32)OCO4)cc(OC)c1OC
inactive: [17] 107 % of control | [18] 109 % of control

O=C(Nc1ccc(F)cc1)NC1CCCCC1
inactive: [10] 87 % of control | [12] 100 % of control
